In patent US10040815B2, “3-substituted 5-amino-6H-thiazolo[4,5-d]pyrimidine-2,7-dione compounds for the treatment and prophylaxis of virus infection” (Hoffmann-La Roche Inc., priority 2014, dated 2018):

What follows are molecules tested against human TLR7 (Homo sapiens (Human), UniProt Q9NYK1) (assay: HEK293-Blue-hTLR-7 cells assay (SEAP reporter, NF-κB activation)). Details: not given.
Type: cell-based
Excerpt: HEK293-Blue-hTLR-7 Cells Assay: A stable HEK293-Blue-hTLR-7 cell line was purchased from InvivoGen (Cat.#: hkb-htlr7, San Diego, Calif., USA). These cells were designed for studying the stimulation of human TLR7 by monitoring the activation of NF-κB. A SEAP (secreted embryonic alkaline phosphatase) reporter gene was placed under the control of the IFN-β[…] minimal promoter fused to five NF-κB and AP-1-binding sites. The SEAP was induced by activating NF-κB and AP-1 via stimulating HEK-Blue hTLR7 cells with TLR7 ligands. Therefore the reporter expression was regulated by the NF-κB promoter upon stimulation of human TLR7 for 20 hours. The cell culture supernatant SEAP reporter activity was determined using QUANTI-Blue™ kit (Cat.#: rep-qb1, Invivogen, San Diego, Calif., USA) at a wavelength of 640 nm, a detection medium that turns purple or blue in the presence of alkaline phosphatase. […] Then 20 μL of the supernatant from each well was incubated with 180 μL Quanti-blue substrate solution at 37° C. for 2 hours and the absorbance was read at 620˜655 nm using a spectrophotometer. […] Hiroaki Hemmi et al, Nature Immunology 3, 196-200 (2002).

Sequence of human TLR7 (Q9NYK1 27-1049): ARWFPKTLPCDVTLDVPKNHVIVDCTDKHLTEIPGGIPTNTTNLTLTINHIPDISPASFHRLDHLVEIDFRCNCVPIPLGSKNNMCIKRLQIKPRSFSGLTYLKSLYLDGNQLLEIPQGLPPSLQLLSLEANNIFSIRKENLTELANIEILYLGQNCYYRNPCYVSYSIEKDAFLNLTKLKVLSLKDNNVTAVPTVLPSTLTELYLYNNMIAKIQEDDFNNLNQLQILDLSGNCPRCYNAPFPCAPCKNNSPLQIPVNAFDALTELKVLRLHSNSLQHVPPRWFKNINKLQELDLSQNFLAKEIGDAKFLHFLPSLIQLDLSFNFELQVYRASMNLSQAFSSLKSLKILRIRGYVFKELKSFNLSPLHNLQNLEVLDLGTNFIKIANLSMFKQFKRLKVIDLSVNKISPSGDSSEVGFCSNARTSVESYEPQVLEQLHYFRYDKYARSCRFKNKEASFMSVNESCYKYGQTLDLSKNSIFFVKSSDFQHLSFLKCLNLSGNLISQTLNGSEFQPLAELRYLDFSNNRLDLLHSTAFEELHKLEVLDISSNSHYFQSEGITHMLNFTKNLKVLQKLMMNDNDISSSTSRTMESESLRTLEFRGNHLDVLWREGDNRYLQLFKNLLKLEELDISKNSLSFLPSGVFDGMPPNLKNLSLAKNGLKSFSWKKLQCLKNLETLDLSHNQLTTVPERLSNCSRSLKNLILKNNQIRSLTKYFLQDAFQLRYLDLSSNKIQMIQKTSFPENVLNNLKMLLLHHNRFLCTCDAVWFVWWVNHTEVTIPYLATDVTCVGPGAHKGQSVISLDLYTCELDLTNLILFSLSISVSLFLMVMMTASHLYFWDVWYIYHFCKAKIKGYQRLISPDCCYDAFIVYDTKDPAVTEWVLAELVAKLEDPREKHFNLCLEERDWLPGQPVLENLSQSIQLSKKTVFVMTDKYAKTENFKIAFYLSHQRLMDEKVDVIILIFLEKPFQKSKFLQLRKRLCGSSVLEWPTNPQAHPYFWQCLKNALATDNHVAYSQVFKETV

| Structure (SMILES) | EC50 |
| --- | --- |
| CC[C@H](O)[C@@H]1C[C@@H](C)[C@H](n2c(=O)sc3c(=O)[nH]c(N)nc32)O1 [Example 28, 5-amino-3-[(2R,3R,5S)-5-[(1S)-1-hydroxypropyl]-3-methyl-tetrahydrofuran-2-yl]-6H-thiazolo[4,5-d]pyrimidine-2,7-dione] | 10 µM |

Same assay, conditions: HEK293-Blue-hTLR-7 cells, 20 hours incubation, SEAP reporter; read-out: HEK293- hTLR-7 EC50

| EC50 | Structure (SMILES) |
| --- | --- |
| 87 µM | C=CCC(O)[C@@H]1C[C@@H](O)[C@H](n2c(=O)sc3c(=O)[nH]c(N)nc32)O1 (single isomer, unassigned) [Example 8-A] |
| 63 µM | CCCC(O)[C@@H]1C[C@@H](O)[C@H](n2c(=O)sc3c(=O)[nH]c(N)nc32)O1 (single isomer, unassigned) [Example 10-A] |
| 48 µM | Nc1nc2c(sc(=O)n2[C@@H]2O[C@H](C(O)C3CC3)C[C@H]2O)c(=O)[nH]1 (single isomer, unassigned) [Example 14-A] |
| 12 µM | C#CC(O)[C@@H]1C[C@@H](O)[C@H](n2c(=O)sc3c(=O)[nH]c(N)nc32)O1 (single isomer, unassigned) [Example 18-A] |
| 38 µM | CC#CC(O)[C@@H]1C[C@@H](O)[C@H](n2c(=O)sc3c(=O)[nH]c(N)nc32)O1 (single isomer, unassigned) [Example 19-A] |
| 14 µM | CCC(O)[C@@H]1C[C@@H](SC)[C@H](n2c(=O)sc3c(=O)[nH]c(N)nc32)O1 (single isomer, unassigned) [Example 22-A] |
| 26 µM | CCC(O)[C@@H]1C[C@@H](N=[N+]=[N-])[C@H](n2c(=O)sc3c(=O)[nH]c(N)nc32)O1 (single isomer, unassigned) [Example 23-A] |
| 70 µM | C=CC(O)[C@@H]1C[C@@H](O)[C@H](n2c(=O)sc3c(=O)[nH]c(N)nc32)O1 (single isomer, unassigned) [Example 24-A] |
| 12 µM | C=CC[C@@H]1C[C@@H](C(O)CC)O[C@H]1n1c(=O)sc2c(=O)[nH]c(N)nc21 (single isomer, unassigned) [Example 26-A] |
| 446 µM | Nc1nc2c(sc(=O)n2[C@@H]2O[C@H](CO)C[C@H]2O)c(=O)[nH]1 [ANA-122, reference compound] |
| 29 µM | C=CC[C@@H]1C[C@@H](C(O)CC)O[C@H]1n1c(=O)sc2c(=O)[nH]c(N)nc21 (stereo partly drawn) [Example 26, 3-[(2R,3R,5S)-3-allyl-5-(1-hydroxypropyl)tetrahydrofuran-2-yl]-5-amino-6H-thiazolo[4,5-d]pyrimidine-2,7-dione] |
| 15 µM | CCC[C@@H]1C[C@@H]([C@@H](O)CC)O[C@H]1n1c(=O)sc2c(=O)[nH]c(N)nc21 [Example 27-A, 5-amino-3-[(2R,3R,5S)-5-[(1S)-1-hydroxypropyl]-3-propyl-tetrahydrofuran-2-yl]-6H-thiazolo[4,5-d]pyrimidine-2,7-dione] |
| 29 µM | CC#C[C@H](O)[C@@H]1C[C@@H](C)[C@H](n2c(=O)sc3c(=O)[nH]c(N)nc32)O1 [Example 29, 5-Amino-3-[(2R,3R,5S)-5-[(1S)-1-hydroxybut-2-ynyl]-3-methyl-tetrahydrofuran-2-yl]-6H-thiazolo[4,5-d]pyrimidine-2,7-dione] |
| 15 µM | C[C@@H]1C[C@@H]([C@@H](O)C2CC2)O[C@H]1n1c(=O)sc2c(=O)[nH]c(N)nc21 [Example 30, 5-Amino-3-[(2R,3R,5S)-5-[(S)-cyclopropyl(hydroxy)methyl]-3-methyl-tetrahydrofuran-2-yl]-6H-thiazolo[4,5-d]pyrimidine-2,7-dione] |
| 70 µM | C[C@H](O)[C@@H]1C[C@@H](C)[C@H](n2c(=O)sc3c(=O)[nH]c(N)nc32)O1 [Example 31, 5-Amino-3-[(2R,3R,5S)-5-[(1S)-1-hydroxyethyl]-3-methyl-tetrahydrofuran-2-yl]-6H-thiazolo[4,5-d]pyrimidine-2,7-dione] |
| 67 µM | Nc1nc2c(sc(=O)n2[C@@H]2O[C@H](CO)C[C@H]2N2CCCC2)c(=O)[nH]1 [Example 32, 5-Amino-3-[(2R,3R,5S)-5-(hydroxymethyl)-3-pyrrolidin-1-yl-tetrahydrofuran-2-yl]-6H-thiazolo[4,5-d]pyrimidine-2,7-dione] |
| 62 µM | CS[C@@H]1C[C@@H](CO)O[C@H]1n1c(=O)sc2c(=O)[nH]c(N)nc21 [Example 39, 5-Amino-3-[(2R,3R,5S)-5-(hydroxymethyl)-3-methylsulfanyl-tetrahydrofuran-2-yl]-6H-thiazolo[4,5-d]pyrimidine-2,7-dione] |
| 51 µM | CC[C@H](OC(=O)C(C)C)[C@@H]1C[C@@H](O)[C@H](n2c(=O)sc3c(=O)[nH]c(N)nc32)O1 [Example 42, [(1S)-1-[(2S,4R,5R)-5-(5-Amino-2,7-dioxo-6H-thiazolo[4,5-d]pyrimidin-3-yl)-4-hydroxy-tetrahydrofuran-2-yl]propyl] 2-methylpropanoate] |

Each molecule was assayed on HBV (hepatitis B virus) (assay: In vivo antiviral efficacy in AAV-HBV mouse model). Details: 100 mg/kg PO, QOD, after the 6-week treatment, mouse serum.

| Structure (SMILES) | reduction in HBV DNA | reduction in HBsAg |
| --- | --- | --- |
| CCC(OC(C)=O)[C@@H]1C[C@@H](O)[C@H](n2c(=O)sc3cnc(N)nc32)O1 (single isomer, unassigned) [Example 4-A] | more than 2 log | 1.5 log |

Same assay, conditions: 300 mg/kg PO, QOD, at the end of the treatment (6 weeks), mouse serum

| Structure (SMILES) | reduction in HBV DNA | reduction in HBsAg |
| --- | --- | --- |
| CCC(OC(C)=O)[C@@H]1C[C@@H](O)[C@H](n2c(=O)sc3cnc(N)nc32)O1 (single isomer, unassigned) [Example 4-A] | more than 3 log | 2.7 log |

Each molecule was assayed on human hepatocytes (assay: Metabolic conversion of prodrugs to active forms in human hepatocytes (LC-MS/MS)). Details: after 3-hour incubation of 50 μM of prodrugs; product 1-A, 14-A or Penciclovir.
Type: in vitro ADME
Excerpt: Metabolism of Prodrugs: Formula (II) or Formula (IIa) A study was undertaken to evaluate the metabolic conversion of prodrugs, formula (II) or formula (IIa), to compounds of formula (I) or formula (Ia) of the present invention. The produgs, formula (II) or formula (IIa), can be metabolized to the active compound of formula (I) or formula (Ia) and other compounds of the invention in the body if they are served as prodrugs. Hepatocytes are often used to assess the degree of metabolic conversion of prodrugs in the body of animal or human. A study was undertaken to evaluate the metabolic conversion of prodrugs, Example 2-A, Example 3-A, Example 4-A, Example 16-A and Example 17-A, to the corresponding active forms, Example 1-A and Example 14-A, in the presence of human hepatocytes. The formation of active forms, Example 1-A and Example 14-A, were monitored in the study. For comparison, the metabolic conversion of famciclovir to penciclovir was also assessed. Cryopreserved hepatocytes plating medium (Cat.#: PY-HMD-01) was purchased from RILD Research Institute for Liver Diseases (Shanghai) Co. Ltd. Cryopreserved human hepatocyte (Cat.#: X008005, Lot#:VRR) was purchased from In Vitro Technologies (Baltimore, Md.). The stock hepatocyte suspension was prepared from cryopreserved hepatocytes in plating medium at the concentration of 1.8×10^6 cells/mL. […] Reaction suspensions were prepared in 24-well cell culture plate by mixing 200 μL of hepatocytes suspension (Cyno or human) and 200 μL of working solution. The final incubation contained 0.9×10^6 cells/mL and 50 μM compound. The above mixtures were incubated at 37° C. in a humidified 5% CO2 atmosphere, with a 150 rpm shaking. After 180 min of incubation, 200 μL of the incubation mixture was transferred to 1.5 mL tube and quenched with 400 μL stop solution (ice-cold acetonitrile with 0.2 μM Tolbutamide as internal standard). The samples were centrifuged at 12000 rpm for 10 minutes and the resultant supernatants were subjected to LC-MS/MS analysis. The calibration curves were prepared in the following way. To a 200 μL of cell suspension (cell density of 1.8 million cells/mL), 198 μL of hepatocyte plating medium and 2 μL of the appropriate concentration of the compound in DMSO were added. Samples were mixed thoroughly and 200 μL of the mixture was transferred to 400 uL of the stop solution (see above). […] The compounds were quantified on an API5500 […] instrument in the ESI-Positive MRM mode.

| Product Concentration in human hepatocytes (metabolized product formed from prodrug) | Structure (SMILES) |
| --- | --- |
| 7.3 µM | Nc1ncc2sc(=O)n([C@@H]3O[C@H](C(O)C4CC4)C[C@H]3O)c2n1 (stereo partly drawn) [Example 17-A, 5-Amino-3-[(2R,3R,5S)-5-[cyclopropyl(hydroxy)methyl]-3-hydroxy-tetrahydrofuran-2-yl]thiazolo[4,5-d]pyrimidin-2-one] |

Same assay, conditions: human hepatocytes; active metabolites Example 1-A, Example 14-A and penciclovir, respectively

| Structure (SMILES) | metabolic conversion of prodrug to active metabolite in human hepatocytes |
| --- | --- |
| CCC(O)[C@@H]1C[C@@H](O)[C@H](n2c(=O)sc3cnc(N)nc32)O1 (single isomer, unassigned) [Example 2-A] | metabolized to yield the corresponding active metabolites |
| CCC(O)[C@@H]1C[C@@H](OC(C)=O)[C@H](n2c(=O)sc3cnc(N)nc32)O1 (single isomer, unassigned) [Example 3-A] | metabolized to yield the corresponding active metabolites |
| CCC(OC(C)=O)[C@@H]1C[C@@H](O)[C@H](n2c(=O)sc3cnc(N)nc32)O1 (single isomer, unassigned) [Example 4-A] | metabolized to yield the corresponding active metabolites |
| CC(=O)OC(C1CC1)[C@@H]1C[C@@H](O)[C@H](n2c(=O)sc3cnc(N)nc32)O1 (single isomer, unassigned) [Example 16-A] | metabolized to yield the corresponding active metabolites |
| Nc1ncc2sc(=O)n([C@@H]3O[C@H](C(O)C4CC4)C[C@H]3O)c2n1 (stereo partly drawn) [Example 17-A, 5-Amino-3-[(2R,3R,5S)-5-[cyclopropyl(hydroxy)methyl]-3-hydroxy-tetrahydrofuran-2-yl]thiazolo[4,5-d]pyrimidin-2-one] | metabolized to yield the corresponding active metabolites |
| CC(=O)OCC(CCn1cnc2cnc(N)nc21)COC(C)=O [Famciclovir, famciclovir, reference compound] | metabolized to yield the corresponding active metabolites |
